Assay results: patent US8377918B2 (ACC Therapeutics Inc, priority 2005, dated 2013)

How the values were obtained:
lung cancer cell A549 = assay: A549 cell counting proliferation; format: cell-based, human; details: A549, 10 and 20 μM, 24 and 48 h
Method: FIG. 12. […] A, A549 cells were seeded at 5 ×10^5 cells/well on a 24-well plate, and cultured overnight the day before the treatment. […] After 24 and 48 h, aliquots of cells were counted in triplicate using a hemocytometer to obtain cell number and proliferation rate.

DU145 cells = assay: MTT cell proliferation assay, DU145 prostate cancer cells; format: cell-based, human; details: 24 h
Method: FIG. 8. […] Prostate cancer cells PC-3 and DU145 were seeded in 96-well plates at 1×10^4 cells/well. […] The cell proliferation was assayed by culturing the cells for 24 h, then adding 10 μl of MTT reagent with incubation for 2 h. The reaction was stopped by adding 100 μl of solubilization solution. The relative cell proliferation was obtained by the reading at 590 nm which was recorded in a spectrophotometer, and normalized to the value of control.
FIG. 17. […] A, the prostate cancer cells PC-3 and DU145; B, colon cancer cells Colo-205 and HCT-116; C, lung cancer cells A549 and H460 cells were plated at 1×10^4 cells per well in a 96 well plate in 100 μl of media.
FIG. 19. […] A, prostate cancer cells PC-3; and B, DU145 cells were plated at 1×10^4 cells per well in a 96 well plate in 100 μl of media. […] Cell proliferation was examined by MTT assay.
FIG. 21. […] A, the prostate cancer cells PC-3 and DU145; B and C, colon cancer cells Colo-205 and HCT-116 were plated at 1×10^4 cells per well in a 96 well plate in 100 μl of media a day before the treatment.
FIG. 23. […] Cell proliferation was examined by MTT assay.

A2780/CP70 tumors = assay: Secondary tumor growth in chicken embryos; format: in vivo, chicken embryo; details: 7.5 μM apigenin, 9 days
Method: FIG. 2. […] Ovarian cancer cells A2780/CP70 were planted into 9-days old fertilized chicken embryos and incubated for 9 days to allow the tumor formation. The formed tumors were harvested and cut into pieces of 9-10 mg weight, and immediately implanted into another 9-day old fertilized chicken embryo and incubated for 9 days. […] In 9 days, the secondary tumor was cut and weighed.

[1] = test system: VEGF expression in A2780/CP70 cells; assay: VEGF ELISA of supernatants, A2780/CP70; format: cell-based, human; details: A2780/CP70, 15 h
Method: (§1) FIG. 6. […] OVCAR-3 and A2780/CP70 cells were plated in 12-well plates and cultured to 90% confluence. […] The concentrations of VEGF in the supernatants were determined by ELISA method as described in Materials and Methods. The data are mean±SE from three independent experiments and each experiment was performed with triplicate cultures.

Colo-205 cells = assay: MTT cell proliferation assay, Colo-205 colon cancer cells; format: cell-based, human; details: Colo-205, apigenin alone, 24 h
Method: FIG. 17. […] A, the prostate cancer cells PC-3 and DU145; B, colon cancer cells Colo-205 and HCT-116; C, lung cancer cells A549 and H460 cells were plated at 1×10^4 cells per well in a 96 well plate in 100 μl of media. […] FIG. 20. […] A, the prostate cancer cells PC-3 and DU145; B, colon cancer cells Colo-205 and HCT-116; C, lung cancer cells A549 and H460 cells were plated at 1×10^4 cells per well in a 96 well plate. […] Cell proliferation was examined by MTT assay. […] FIG. 22. […] A, colon cancer cells Colo-205 and HCT-116; B, lung cancer cells A549 and H460 cells were plated at 1×10^4 cells per well in a 96 well plate the day before the treatment. […] Cell proliferation was examined by MTT assay. […] FIG. 24. […] The IC50 values for inhibiting cell proliferation were calculated from cell proliferation assay as described above.

[2] = test system: VEGF expression in OVCAR-3 cells; assay: VEGF ELISA of supernatants, OVCAR-3; format: cell-based, human; details: OVCAR-3, 15 h
Method: as §1

H460 cells = assay: MTT cell proliferation assay, H460 lung cancer cells; format: cell-based, human; details: H460, apigenin alone, 24 h
Method: FIG. 17. […] A, the prostate cancer cells PC-3 and DU145; B, colon cancer cells Colo-205 and HCT-116; C, lung cancer cells A549 and H460 cells were plated at 1×10^4 cells per well in a 96 well plate in 100 μl of media. […] FIG. 18. […] A and B, the prostate cancer cells PC-3 and DU145; C, colon cancer cells Colo-205 and HCT-116; D, lung cancer cells A549 and H460 cells were plated at 1×10^4 cells per well in a 96 well plate in 100 μl of media. […] The cell proliferation was analyzed by MTT assay. […] FIG. 22. […] A, colon cancer cells Colo-205 and HCT-116; B, lung cancer cells A549 and H460 cells were plated at 1×10^4 cells per well in a 96 well plate the day before the treatment. […] Cell proliferation was examined by MTT assay. […] FIG. 25.

[3] = test system: A549 cell-induced tumor angiogenesis; assay: A549 Matrigel plug angiogenesis in nude mice; format: in vivo; details: 15 μM apigenin in plug, 15 days
Method: FIG. 16. […] Each treatment group contained four mice. The mice were euthanized 15 days after implantation. Representative Matrigel plugs from the solvent- and apigenin-treated groups. C, D, the relative angiogenesis was analyzed by the levels of RBC hemoglobin, a surrogate marker, in the Matrigel plugs. The hemoglobin content was analyzed by adding 1×RBC lysis buffer (1 mM EDTA and 5 mM potassium/sodium phosphate buffer, pH 8-8.5) to a plug, followed by incubation at 4° C. overnight. Hemoglobin levels were determined by the Drabkin method by a commercial assay kit (Sigma) according to the manufacturer's instruction with some modification. […] Relative hemoglobin content is the hemoglobin level (milligrams) divided by the final volume of each plug. The data are the mean±S.E. of eight Matrigel plugs for each experiment. *, significant difference compared with the solvent control (p<0.05).

**Q.** How did the “effect on lung cancer cell proliferation” value (lung cancer cell A549) turn out when `O=c1cc(-c2ccc(O)cc2)oc2cc(O)cc(O)c12` [apigenin, 4′,5,7,-trihydroxyflavone] was run?
**A.** significantly inhibits

**Q.** And the “effect on sensitivity to etoposide treatment” value (DU145 cells; DU145, 15 μM apigenin)?
**A.** increased the sensitivity

**Q.** What about the “effect on cell proliferation” value (DU145 cells; DU145, apigenin alone) of the same compound?
**A.** inhibited

**Q.** And the “effect on tumor growth (secondary tumor weight)” value (A2780/CP70 tumors)?
**A.** inhibited tumor growth

**Q.** And the “effect on expression of VEGF” value [1]?
**A.** inhibited the expression of VEGF

**Q.** And the “effect on cell proliferation” value (Colo-205 cells)?
**A.** inhibited the proliferation

**Q.** And the “effect on expression of VEGF” value [2]?
**A.** inhibited the expression of VEGF

**Q.** What about the “effect on cell proliferation” value (H460 cells) of the same compound?
**A.** inhibited the proliferation

**Q.** And the “effect on tumor angiogenesis (hemoglobin content of Matrigel plugs)” value [3]?
**A.** inhibited A549 cell-induced tumor angiogenesis
